These results are taken from publication PMC8550792, “Evolution of kinase polypharmacology across HSP90 drug discovery” (Cell Chemical Biology, 2021).

Experiment in all cases: biochemical
What all share (format): biochemical

The target of test [1] is T1, 382 unique human kinases (Homo sapiens, UniProt P29320).
T1 construct: purchased Reaction Biology (HotSpot contract assay)
T1 sequence (P29320 21-983): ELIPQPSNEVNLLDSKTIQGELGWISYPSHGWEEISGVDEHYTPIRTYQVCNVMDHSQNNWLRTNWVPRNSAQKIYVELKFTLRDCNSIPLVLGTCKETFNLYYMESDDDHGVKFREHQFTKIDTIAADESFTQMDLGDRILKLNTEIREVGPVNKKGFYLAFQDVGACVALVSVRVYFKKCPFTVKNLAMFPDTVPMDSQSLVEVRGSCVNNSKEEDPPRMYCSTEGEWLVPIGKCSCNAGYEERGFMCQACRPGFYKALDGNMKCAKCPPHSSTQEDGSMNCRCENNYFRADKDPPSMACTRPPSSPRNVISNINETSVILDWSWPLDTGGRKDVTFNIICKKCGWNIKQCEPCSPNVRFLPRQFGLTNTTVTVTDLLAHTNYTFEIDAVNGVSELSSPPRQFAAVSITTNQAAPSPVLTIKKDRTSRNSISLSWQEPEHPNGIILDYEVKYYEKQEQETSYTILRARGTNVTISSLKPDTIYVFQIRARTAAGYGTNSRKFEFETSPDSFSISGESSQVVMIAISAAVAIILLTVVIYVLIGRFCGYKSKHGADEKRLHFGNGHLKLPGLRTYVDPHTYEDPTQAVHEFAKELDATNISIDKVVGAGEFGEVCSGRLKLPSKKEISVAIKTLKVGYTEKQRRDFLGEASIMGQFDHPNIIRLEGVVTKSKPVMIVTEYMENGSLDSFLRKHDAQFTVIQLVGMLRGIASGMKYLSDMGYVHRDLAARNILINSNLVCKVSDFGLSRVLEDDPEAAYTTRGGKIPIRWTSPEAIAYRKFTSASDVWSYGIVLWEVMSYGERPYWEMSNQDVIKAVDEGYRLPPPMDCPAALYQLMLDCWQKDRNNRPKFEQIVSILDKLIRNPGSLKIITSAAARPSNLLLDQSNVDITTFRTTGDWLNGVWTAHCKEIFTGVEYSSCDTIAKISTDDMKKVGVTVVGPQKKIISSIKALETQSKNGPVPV
The settings on record: EPHA3, 10 uM; for remaining activity at 10 µM: read-out: % Enzyme Activity (relative to DMSO controls).

Test [2] concerns the target T2, 382 unique human kinases (Homo sapiens, UniProt Q6XUX3).
T2 construct: purchased Reaction Biology (HotSpot contract assay)
T2 sequence (Q6XUX3 1-929): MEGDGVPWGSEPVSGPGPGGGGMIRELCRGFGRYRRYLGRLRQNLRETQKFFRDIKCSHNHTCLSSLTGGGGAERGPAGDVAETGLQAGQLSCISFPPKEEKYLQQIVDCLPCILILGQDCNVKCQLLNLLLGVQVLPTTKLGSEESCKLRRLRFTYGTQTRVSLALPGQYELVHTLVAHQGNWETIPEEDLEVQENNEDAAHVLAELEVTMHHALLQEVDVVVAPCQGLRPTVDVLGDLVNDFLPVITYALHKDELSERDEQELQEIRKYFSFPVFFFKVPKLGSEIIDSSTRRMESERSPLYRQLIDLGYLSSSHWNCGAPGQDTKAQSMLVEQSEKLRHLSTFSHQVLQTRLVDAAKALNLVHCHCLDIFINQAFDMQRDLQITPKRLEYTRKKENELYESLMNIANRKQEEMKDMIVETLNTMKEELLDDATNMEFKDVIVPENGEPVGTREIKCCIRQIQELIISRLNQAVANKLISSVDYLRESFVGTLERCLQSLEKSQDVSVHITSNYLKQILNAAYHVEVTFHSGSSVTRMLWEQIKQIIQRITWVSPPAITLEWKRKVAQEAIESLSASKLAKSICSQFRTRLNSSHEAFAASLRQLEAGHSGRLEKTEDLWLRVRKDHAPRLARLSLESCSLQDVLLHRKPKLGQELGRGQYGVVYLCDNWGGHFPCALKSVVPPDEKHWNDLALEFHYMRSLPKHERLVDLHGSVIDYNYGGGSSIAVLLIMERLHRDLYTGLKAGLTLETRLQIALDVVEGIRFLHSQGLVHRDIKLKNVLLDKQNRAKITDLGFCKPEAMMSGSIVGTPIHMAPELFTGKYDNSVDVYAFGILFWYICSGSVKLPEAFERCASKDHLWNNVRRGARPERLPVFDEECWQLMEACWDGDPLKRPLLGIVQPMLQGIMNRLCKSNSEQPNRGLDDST
The settings on record: RIPK5, 10 uM; for remaining activity at 10 µM: read-out: % Enzyme Activity (relative to DMSO controls).

In test [3] the target is T3, 382 unique human kinases (Homo sapiens, UniProt P53671).
T3 construct: purchased Reaction Biology (HotSpot contract assay)
The settings on record: LIMK2, [ATP] 5 µM, compound 10 uM; for remaining activity at 10 µM: read-out: % Enzyme Activity (relative to DMSO controls).

In test [4] the target is T4, 382 unique human kinases (Homo sapiens, UniProt P54760).
T4 construct: purchased Reaction Biology (HotSpot contract assay)
T4 sequence (P54760 16-987): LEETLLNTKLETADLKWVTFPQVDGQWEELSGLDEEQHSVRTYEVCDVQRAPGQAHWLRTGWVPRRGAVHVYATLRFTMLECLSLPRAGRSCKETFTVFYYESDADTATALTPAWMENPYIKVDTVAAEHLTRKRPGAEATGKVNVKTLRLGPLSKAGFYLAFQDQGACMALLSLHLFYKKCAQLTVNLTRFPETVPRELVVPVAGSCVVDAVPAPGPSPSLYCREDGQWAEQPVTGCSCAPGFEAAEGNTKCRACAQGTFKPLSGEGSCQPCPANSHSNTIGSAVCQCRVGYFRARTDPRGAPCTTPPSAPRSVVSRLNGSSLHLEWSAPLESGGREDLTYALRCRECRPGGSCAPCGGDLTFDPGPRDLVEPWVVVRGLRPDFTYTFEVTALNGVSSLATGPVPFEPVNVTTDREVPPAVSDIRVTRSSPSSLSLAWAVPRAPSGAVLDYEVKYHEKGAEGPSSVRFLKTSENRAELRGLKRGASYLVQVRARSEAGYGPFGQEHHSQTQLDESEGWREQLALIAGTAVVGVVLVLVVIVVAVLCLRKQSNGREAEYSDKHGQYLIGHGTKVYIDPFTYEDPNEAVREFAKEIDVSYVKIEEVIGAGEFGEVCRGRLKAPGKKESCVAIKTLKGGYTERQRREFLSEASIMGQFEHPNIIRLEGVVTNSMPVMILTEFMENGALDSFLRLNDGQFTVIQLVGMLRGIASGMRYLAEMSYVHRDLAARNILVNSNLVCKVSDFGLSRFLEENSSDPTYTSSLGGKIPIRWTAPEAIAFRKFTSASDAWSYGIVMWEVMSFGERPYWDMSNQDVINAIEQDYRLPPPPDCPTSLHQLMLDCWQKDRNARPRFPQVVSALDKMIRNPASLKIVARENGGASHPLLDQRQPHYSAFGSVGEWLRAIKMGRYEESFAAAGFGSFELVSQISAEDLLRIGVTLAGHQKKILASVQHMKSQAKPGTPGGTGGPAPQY
The settings on record: EPHB4, [ATP] 20 µM, compound 10 uM; for remaining activity at 10 µM: read-out: % Enzyme Activity (relative to DMSO controls).

T3 sequence (P53671 whole entry): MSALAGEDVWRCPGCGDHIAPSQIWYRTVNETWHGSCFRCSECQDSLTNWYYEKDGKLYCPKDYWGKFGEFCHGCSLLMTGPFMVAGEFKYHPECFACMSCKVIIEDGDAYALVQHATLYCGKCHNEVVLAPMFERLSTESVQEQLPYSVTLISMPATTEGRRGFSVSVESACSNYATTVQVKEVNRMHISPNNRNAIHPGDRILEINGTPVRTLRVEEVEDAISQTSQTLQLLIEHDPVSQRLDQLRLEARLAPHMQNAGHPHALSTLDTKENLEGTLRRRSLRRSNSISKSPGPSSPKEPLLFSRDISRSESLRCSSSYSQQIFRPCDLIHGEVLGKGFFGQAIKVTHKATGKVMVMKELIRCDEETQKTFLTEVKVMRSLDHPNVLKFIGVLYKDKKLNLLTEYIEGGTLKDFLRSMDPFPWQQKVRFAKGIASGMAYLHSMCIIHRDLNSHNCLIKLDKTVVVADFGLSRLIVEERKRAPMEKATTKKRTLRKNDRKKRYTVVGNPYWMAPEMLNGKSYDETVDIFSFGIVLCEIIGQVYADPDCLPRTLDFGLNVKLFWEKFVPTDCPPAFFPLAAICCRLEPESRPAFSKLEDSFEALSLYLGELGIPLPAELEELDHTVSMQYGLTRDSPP

In the case of `CC(C)c1cc(-c2n[nH]c(=O)n2-c2ccc3c(ccn3C)c2)c(O)cc1O` [Ganetespib (STA9090)], the remaining activity at 10 µM at 382 unique human kinases [1] stood at 73.7%; on 382 unique human kinases [2] it was 95.4%.
As for `CC(C)c1cc(-c2n[nH]c(=O)n2-c2ccc3c(ccn3C)c2)c(O)cc1O` [Ganetespib], the remaining activity at 10 µM turned out to be 46.7% on 382 unique human kinases [3] and 33.1% at 382 unique human kinases [4].
As for `CCNC(=O)c1noc(-c2cc(C(C)C)c(O)cc2O)c1-c1ccc(CN2CCOCC2)cc1` [Luminespib (AUY-922)], on 382 unique human kinases [1], the “% Enzyme Activity (relative to DMSO controls)” value is 100.00% and the remaining activity at 10 µM was determined as 104%. For the same molecule, on 382 unique human kinases [2], the “% Enzyme Activity (relative to DMSO controls)” value was found to be 77.60% and the remaining activity at 10 µM amounted to 79.8%.
In the case of `CCNC(=O)c1noc(-c2cc(C(C)C)c(O)cc2O)c1-c1ccc(CN2CCOCC2)cc1` [Luminespib], at 382 unique human kinases [3], the “% Enzyme Activity (relative to DMSO controls)” value is on record as 100.64% and the remaining activity at 10 µM was found to be 101%. On 382 unique human kinases [4], the “% Enzyme Activity (relative to DMSO controls)” value amounted to 81.04% and the remaining activity at 10 µM turned out to be 82.2%.
